Results reported in ChEMBL document CHEMBL1139936, “Annonaceous acetogenin mimics bearing a terminal lactam and their cytotoxicity against cancer cells” (Bioorg Med Chem Lett, 2007).
The source made the active and inactive calls. The rule behind the calls is not given here.

What was measured:
[1] = (§1) Cytotoxicity against human BEL-7404 cells after 48 hrs by MTT assay; assay type: functional, cell-based; conditions: BEL-7404, 48 h
[2] = Cytotoxicity against human Chang cells after 48 hrs by MTT assay; assay type: cell-based
SK-HEP1 = test: Cytotoxicity against human SKHep1 cells after 48 hrs by MTT assay; assay type: functional, cell-based; conditions: for IC50: SK-HEP1, 48 h
B16 = test: Cytotoxicity against […] B16 cells after 48 hrs by MTT assay; assay type: functional, cell-based; conditions: Mus musculus; for IC50: B16, 48 h
BEL-7404 = test: as §1; assay type: functional, cell-based

| Compound | IC50 [1] | Activity [2] | IC50 (SK-HEP1) | IC50 (B16) | Activity (SK-HEP1) | Activity (BEL-7404) | Activity (B16) |
| --- | --- | --- | --- | --- | --- | --- | --- |
| CCCCCCCCCC[C@H](O)COCCOC[C@@H](O)CCCCCCCCCCCCC1=C[C@H](C)N(C)C1=O | 234 nM | Not Active | 589 nM | 13 nM | – | – | – |
| CCCCCCCCCC[C@H](O)COCCOC[C@@H](O)CCCCCCCCCCCCC1=C[C@H](C)NC1=O | 2200 nM | Not Active | – | 35 nM | inactive | – | – |
| CCCCCCCCCC[C@H](O)COCCOC[C@@H](O)CCCCCCCCCCCCC1=C[C@H](C)N(CCCNC(=O)CCCCCNC(=S)Nc2ccc3c(c2)C(=O)OC32c3ccc(O)cc3Oc3cc(O)ccc32)C1=O | – | Not Active | – | – | inactive | inactive | inactive |
| CCCCCCCCCC[C@H](O)COCCOC[C@@H](O)CCCCCCCCCCCCC1=CC(C)(C)N(C)C1=O | 845 nM | Not Active | 583 nM | 478 nM | – | – | – |
| CCCCCCCCCC[C@H](O)COCCOC[C@@H](O)CCCCCCCCCCCCC1=C[C@H](C)N(CCCNC(=O)CCCCCNC(=O)CCCCCNC(=O)OC(C)(C)C)C1=O | 2500 nM | Not Active | – | – | inactive | – | inactive |
| CCCCCCCCCC[C@H](O)COCCOC[C@@H](O)CCCCCCCCCCCCC1=C[C@H](C)N(CCCNC(=O)C(F)(F)F)C1=O | 1350 nM | Not Active | – | 995 nM | inactive | – | – |
| CCCCCCCCCC[C@H](O)COCCOC[C@@H](O)CCCCCCCCCCCCC1=C[C@H](C)N(CCCNC(=O)CCCCCNC(=O)OC(C)(C)C)C1=O | 3200 nM | Not Active | – | – | inactive | – | inactive |
| CCCCCCCCCC[C@H](O)COCCOC[C@@H](O)CCCCCCCCCCCCC1=CCN(C)C1=O | 168 nM | Not Active | 104 nM | 168 nM | – | – | – |
| CCCCCCCCCC[C@H](O)COCCOC[C@@H](O)CCCCCCCCCCCCC1=C[C@H](C)OC1=O | 41 nM | Not Active | 65 nM | 35 nM | – | – | – |
